Data published in paper PMC8320704 (Journal of medicinal chemistry, 2015).
Values joined by “and” are separate entries in the source; they are usually repeats but may differ in a detail not shown here. Equal values may be shown once. Read-outs that look alike come from different tables or passages of the source.

Columns and labels:
[1] = molecular target: HIV-1 RT RNase H (Human immunodeficiency virus type 1 group M subtype B, UniProt P04585); assay: HIV-1 RT RNase H inhibition; assay type: biochemical
[2] = molecular target: T1, HIV-1 IN (ST) (Human immunodeficiency virus type 1 group M subtype B, UniProt P04585); assay: HIV-1 IN gel-based assay, strand transfer; assay type: biochemical
[3] = molecular target: T1, HIV-1 IN (ST); conditions: read-out: ST IC50, previously reported compound; cited from earlier work
[4] = molecular target: T2, HIV-1 IN (3′-P) (Human immunodeficiency virus type 1 group M subtype B, UniProt P04585); conditions: read-out: 3′-P IC50, previously reported compounds; cited from earlier work
[5] = molecular target: T2, HIV-1 IN (3′-P); assay: HIV-1 IN gel-based assay, 3′-processing; assay type: biochemical

| Compound | IC50 ([1]; RNase H IC50, Table 1) [µM] | IC50 [2] [µM] | IC50 [3] | IC50 [4] [µM] | IC50 ([1]; RNase H IC50, text) [µM] | IC50 [5] [µM] |
| --- | --- | --- | --- | --- | --- | --- |
| CCOC(=O)/C(O)=C/C(=O)c1cn(Cc2ccc(C)cc2C)c2ccccc2c1=O [10q, 4-[1-(2,4-Dimethylphenyl)methyl-4(1H)-quinolinon-3-yl]-2-hydroxy-4-oxo-2-butenoic Acid Ethyl Ester] | > 50 | > 111 | – | – | – | – |
| CCOC(=O)/C(O)=C/C(=O)c1cn(Cc2ccc(Cl)cc2Cl)c2ccccc2c1=O [10o, 4-[1-(2,4-Dichlorophenyl)methyl-4(1H)-quinolinon-3-yl]-2-hydroxy-4-oxo-2-butenoic Acid Ethyl Ester] | > 50 | > 111 | – | – | – | – |
| O=C(O)/C(O)=C/C(=O)c1cn(Cc2ccc(F)cc2)c2cc(Cl)c(Cl)cc2c1=O [compound 8] | – | – | 0.033 µM and 0.04 µM | > 50 | 42 | – |
| CCOC(=O)/C(O)=C/C(=O)c1cn(Cc2ccc(OC)cc2)c2ccccc2c1=O [10h, 4-[1-(4-Methoxyphenyl)methyl-4(1H)-quinolinon-3-yl]-2-hydroxy-4-oxo-2-butenoic Acid Ethyl Ester] | – | > 37 | – | – | – | > 37 |
| CCOC(=O)/C(O)=C/C(=O)c1cn(Cc2ccc([N+](=O)[O-])cc2)c2ccccc2c1=O [10i, 4-[1-(4-Nitrophenyl)methyl-4(1H)-quinolinon-3-yl]-2-hydroxy-4-oxo-2-butenoic Acid Ethyl Ester] | – | > 37 | – | – | – | > 37 |
| CCOC(=O)/C(O)=C/C(=O)c1cn(Cc2ccc(Cl)cc2)c2ccccc2c1=O [10f, 4-[1-(4-Chlorophenyl)methyl-4(1H)-quinolinon-3-yl]-2-hydroxy-4-oxo-2-butenoic Acid Ethyl Ester] | – | > 37 | – | – | – | > 37 |
| O=C(O)/C(O)=C/C(=O)c1cn(CCCCc2ccccc2)c2ccccc2c1=O [11x, 2-Hydroxy-4-oxo-4-(4-oxo-1-(4-phenylbutyl)-1,4-dihydroquinolin-3-yl)but-2-enoic Acid] | – | < 0.45 | – | – | – | > 333 |
